In the Deep4Chem optical property database:

Test: solvent given as SMILES

`C(=C\c1ccc(-c2nnc(-c3ccc(/C=C/c4ccc(-c5nc(-c6ccccc6)c(-c6ccccc6)[nH]5)cc4)cc3)o2)cc1)/c1ccc(-c2nc(-c3ccccc3)c(-c3ccccc3)[nH]2)cc1` gave an emission maximum (in C1CCOC1) of 492 nm, an emission maximum (in CC#N) of 525 nm and an emission maximum (in CN(C)C=O) of 524 nm. For the same compound, the emission maximum (in Cc1ccccc1) was 445 nm.

With `CC1(C)c2ccccc2N(c2ccc(-c3nnc(-c4cc(-c5ccccc5)c(-c5ccccc5)c(-c5ccccc5)c4-c4ccccc4)o3)cc2)c2ccccc21` the emission maximum (in Cc1ccccc1) was 445 nm and the emission maximum (in c1ccc(-n2c(-c3c(-n4c5ccccc5c5ccccc54)cccc3-n3c4ccccc4c4ccccc43)nc3ccccc32)cc1) was 453 nm.

`O=C1OC(=O)C2=C1[Se][C@]13C2=C[C@H](c2ccccc21)c1ccccc13` showed an emission maximum (in ClCCl) of 517 nm.

`O=c1[nH]nc(-c2ccc(/C=C/c3ccc(-c4n[nH]c(=O)o4)cc3)cc2)o1` gave an emission maximum (in CN(C)C=O) of 408 nm.

Compound `CCCCCCC(CCCCCC)N1C(=O)c2cccc3c(-c4ccc([Si](C)(C)C)cc4)ccc(c23)C1=O` has an emission maximum (in CCCCCC) of 406.7 nm, an emission maximum (in CCCCCCCCCCCCCC) of 407 nm and an emission maximum (in CCCCCCCCCCCO) of 430.6 nm. For the same compound, the emission maximum (in CCCCO) was 434.2 nm, the emission maximum (in CN(C)C=O) was 432.7 nm and the emission maximum (in Cc1ccccc1) was 416.7 nm. The emission maximum (in ClC(Cl)Cl) was 425.4 nm.

`C[n+]1ccc(/C=C/c2ccc(N(c3ccccc3)c3ccc(/C=C/c4cc[n+](C)cc4)cc3)cc2)cc1` showed an emission maximum (in ClCCl) of 502 nm, an emission maximum (in O) of 656 nm and an emission maximum (in OCC(O)CO) of 649 nm.

For `CCc1nc2c(nc1CC)C(c1ccccc1)=[N+]1C2=Nc2c3nc(CC)c(CC)nc3c(-c3ccccc3)n2[B-]1(F)F`, the emission maximum (in C1CCOC1) was 721 nm.

With `C[Si]1(C)c2cc(-c3cccs3)ccc2C=Cc2ccc(-c3cccs3)cc21` the emission maximum (in ClCCl) was 415 nm.

Work on `CCC(C)(C)c1ccc(-c2ccc3c(c2)C(CCOC)(CCOC)c2cc(C(C)(C)CC)ccc2-3)cc1` yielded an emission maximum (in C1CCCCC1) of 360 nm.

With `c1ccc2c(c1)CCc1ccccc1N2c1c2ccccc2c(N2c3ccccc3CCc3ccccc32)c2ccccc12` the emission maximum (in Cc1ccccc1) was 525 nm.

With `Cc1c(C)n2c(COC(=O)CNC(=O)OC(C)(C)C)c(C)c(=O)n2c1=O` the emission maximum (in CCO) was 459 nm.

Work on `Fc1ccc(-c2cc3ccc4cc(-c5ccc(F)cc5)cc5ccc(c2)c3c45)cc1` yielded an emission maximum (in C1CCCCC1) of 413.38 nm, an emission maximum (in C1CCOC1) of 411.8 nm and an emission maximum (in CC#N) of 408.05 nm. For the same compound, the emission maximum (in CCCCCC) was 411.8 nm, the emission maximum (in CCO) was 408.84 nm and the emission maximum (in CN(C)C=O) was 409.82 nm. For the same compound, the emission maximum (in CO) was 408.05 nm, the emission maximum (in ClC(Cl)Cl) was 410.54 nm and the emission maximum (in ClCCl) was 409.82 nm.

Work on `c1ccc(B2Nc3cc4c(cc3-c3occc32)NB(c2ccccc2)c2ccoc2-4)cc1` yielded an emission maximum (in ClCCl) of 393 nm.

`COC(=O)c1ccccc1-c1c2ccc(=[NH2+])cc-2oc2cc(N)ccc12` gave an emission maximum (in CC#N) of 525 nm, an emission maximum (in CCO) of 529 nm and an emission maximum (in CN(C)C=O) of 538 nm. The emission maximum (in O) was 527 nm.

`COc1ccc(N(c2ccc(OC)cc2)c2ccc(-c3ccc4c(c3)C(=O)c3ccccc3C4=O)cc2)cc1` showed an emission maximum (in CCCCCC) of 571 nm, an emission maximum (in CCOCC) of 720 nm and an emission maximum (in Cc1ccccc1) of 679 nm. The emission maximum (in ClC(Cl)(Cl)Cl) was 646 nm.

`CC(C)[Si](C#Cc1c2ccccc2c(C#Cc2c3ccccc3c(C#Cc3c4ccccc4c(C#Cc4c5ccccc5c(C#C[Si](C(C)C)(C(C)C)C(C)C)c5ccccc45)c4ccccc34)c3ccccc23)c2ccccc12)(C(C)C)C(C)C` showed an emission maximum (in Cc1ccccc1) of 609 nm.

Work on `Cc1nc(-c2ccccc2)c2ccccn12` yielded an emission maximum (in C1CCCCC1) of 475 nm, an emission maximum (in CC#N) of 467 nm and an emission maximum (in CO) of 473 nm. For the same compound, the emission maximum (in ClCCl) was 485 nm and the emission maximum (in O) was 470 nm.

For `CN1C(=O)/C(=C/c2ccncc2)N=C1/C=C/c1ccncc1`, the emission maximum (in C1COCCO1) was 537 nm, the emission maximum (in CC#N) was 541 nm and the emission maximum (in CCO) was 545 nm. The emission maximum (in CCOC(C)=O) was 535 nm and the emission maximum (in O) was 542 nm.

With `CCCCn1c(-c2ccc(-c3nnc(-c4ccc5ccccc5c4)o3)cc2)nc2c3ccccc3c3ccccc3c21` the emission maximum (in ClCCl) was 448 nm.

Compound `COC(=O)/C=C/C=C/C1=CC2=C(c3c(C)cc(C)cc3C)c3cc(/C=C/C=C/C(=O)OC)cn3[B-](F)(F)[N+]2=C1` has an emission maximum (in ClCCl) of 662 nm.

With `COc1ccc2c(-c3nc(-c4ccccc4F)no3)cc(=O)oc2c1` the emission maximum (in CCO) was 464 nm and the emission maximum (in ClC(Cl)Cl) was 453 nm.

`N#Cc1c[nH]c2ccccc12` gave an emission maximum (in C1CCOC1) of 314 nm, an emission maximum (in C1COCCO1) of 305 nm and an emission maximum (in CC#N) of 313 nm. It also gave an emission maximum (in CC(C)O) of 315 nm, an emission maximum (in CCO) of 314 nm and an emission maximum (in CO) of 314 nm. For the same compound, the emission maximum (in CS(C)=O) was 316 nm, the emission maximum (in O) was 320 nm and the emission maximum (in OCC(F)(F)F) was 314 nm.

In the case of `CNCCCC1c2ccccc2C=Cc2ccccc21`, the emission maximum (in CC#N) is reported as 358 nm, the emission maximum (in CO) is reported as 358 nm and the emission maximum (in O) is reported as 360 nm.

`CCN(CC)c1ccc2cc3ccc(=[N+](CC)CC)cc-3oc2c1` showed an emission maximum (in CC#N) of 549 nm, an emission maximum (in CCO) of 557 nm and an emission maximum (in CN(C)C=O) of 532 nm. It also gave an emission maximum (in O) of 555 nm.

Compound `[O-]c1ccccc1/C=N/c1ccccc1/N=C/c1ccccc1[O-]` has an emission maximum (in C1CCOC1) of 490 nm.

With `COc1ccc(/C=C/c2nc(N3CCOCC3)c3c([n+]2[O-])CCCC3)cc1` the emission maximum (in ClCCl) was 533 nm.

Compound `COc1ccc(-c2cc(-c3ccc(C(F)(F)F)cc3)nn2C)cc1` has an emission maximum (in ClCCl) of 367 nm.

In the case of `CC1(C)c2ccccc2N(c2ccc(-c3ncccn3)cc2)c2ccccc21`, the emission maximum (in Cc1ccccc1) is reported as 448 nm and the emission maximum (in O=P(c1ccccc1)(c1ccccc1)c1ccc2oc3ccc(P(=O)(c4ccccc4)c4ccccc4)cc3c2c1) is reported as 457 nm.

`O=C1O[B-]2(OC1=O)OC(c1ccc3ccccc3c1)=CC(c1ccc3ccccc3c1)=[O+]2` gave an emission maximum (in CC#N) of 550 nm and an emission maximum (in ClC(Cl)(Cl)Cl) of 451 nm.

For `COc1ccc2c(c1)SCC1=C(c3ccccc3)C3=Nc4c(-c5ccccc5)c5c(n4[B-](F)(F)[N+]3=C12)-c1ccc(OC)cc1SC5`, the emission maximum (in ClC(Cl)Cl) was 730 nm.

In the case of `O=[N+]([O-])c1ccc(-n2c3ccccc3c3c2c2ccccc2n3-c2ccccc2)cc1`, the emission maximum (in Cc1ccccc1) is reported as 660 nm.

`COc1cc(OC)cc(C2=CC(c3ccccc3)=C(c3ccccc3)C2)c1` showed an emission maximum (in ClCCl) of 449 nm.

With `COc1cc(OC)c2c(c1)c1cc3oc(=O)cc(C)c3cc1c1cc(OC)cc(OC)c12` the emission maximum (in ClC(Cl)Cl) was 538 nm.

`CCCCCCCCN1C(=O)c2ccc3c4c(-c5ccc6c(c5)c5ccccc5n6-c5ccccc5)cc5c6c(ccc(c7c(-c8ccc9c(c8)c8ccccc8n9-c8ccccc8)cc(c2c37)C1=O)c64)C(=O)N(CCCCCCCC)C5=O` showed an emission maximum (in ClC(Cl)Cl) of 689 nm.

Work on `COC(=O)c1[nH]c(-c2ccccc2)c2nnc3ccc(OC)cc3c12` yielded an emission maximum (in ClCCl) of 475 nm.

In the case of `Cc1cc(-c2nc(-c3ccccc3)nc(-c3ccccc3)n2)ccc1N1c2ccccc2C2(c3ccccc3-c3ccccc32)c2ccccc21`, the emission maximum (in Cc1ccccc1) is reported as 481 nm.

Work on `CCCCCCc1ccc2c(/C=N/c3ccc(/N=C/c4c(O)ccc5cc(CCCCCC)ccc45)cc3)c(O)ccc2c1` yielded an emission maximum (in C1CCOC1) of 542 nm, an emission maximum (in CC#N) of 539 nm and an emission maximum (in Cc1ccccc1) of 546 nm. For the same compound, the emission maximum (in ClCCl) was 546 nm.

Work on `Cc1ccc2nnn(-c3c(C#N)c4c(N)ncnc4n3[C@H]3C[C@H](O)[C@@H](CO)O3)c2c1` yielded an emission maximum (in CO) of 419 nm.

Compound `CC1=C(Cl)C(/C=C/c2ccc3c(c2)c2ccccc2n3Cc2cn(CCC[P+](c3ccccc3)(c3ccccc3)c3ccccc3)nn2)=[N+]2C1=C(c1ccc(I)cc1)c1c(C)c(Cl)c(C)n1[B-]2(F)F` has an emission maximum (in CCO) of 650 nm.

`ClP1(Cl)=N[P@](Cl)(Oc2ccc3ccc4cccc5ccc2c3c45)=N[P@@](Cl)(Oc2ccc3ccc4cccc5ccc2c3c45)=N1` gave an emission maximum (in ClCCl) of 419 nm.

Work on `C[Si]1(C)C2=CC(=[N+]3CCC3)C=C(F)C2=Nc2c(F)cc(N3CCC3)cc21` yielded an emission maximum (in CCO) of 719 nm.

Compound `CCOC(=O)c1ccccc1-c1c2ccc(=[N+](CC)CC)cc-2oc2cc(N(CC)CC)ccc12` has an emission maximum (in CC#N) of 581 nm, an emission maximum (in CCO) of 571 nm and an emission maximum (in CN(C)C=O) of 585 nm. It also gave an emission maximum (in O) of 581 nm.

Compound `Cc1ccc(C2C3=C(CCCC3=O)Nc3c2c(=O)oc2ccccc32)cc1` (stereo unspecified) has an emission maximum (in CS(C)=O) of 441 nm.

Compound `COc1cc2cc(-c3cc4cc(OC)c(OC)cc4oc3=O)oc2cc1OC` has an emission maximum (in CC#N) of 493 nm, an emission maximum (in CCOC(C)=O) of 478 nm and an emission maximum (in CS(C)=O) of 500 nm. For the same compound, the emission maximum (in Cc1ccccc1) was 475 nm and the emission maximum (in O) was 435 nm.

For `CC(C)(C)c1ccc2c(c1)c1cc(C(C)(C)C)ccc1n2-c1ccc(C#Cc2ccc3c4ccc(C#Cc5ccc(-n6c7ccc(C(C)(C)C)cc7c7cc(C(C)(C)C)ccc76)cc5)cc4n(-c4ccc(C(F)(F)F)cc4)c3c2)cc1`, the emission maximum (in ClCCl) was 431 nm.

Compound `CCOC(=O)c1c(-c2c(Cl)c3ccccc3oc2=O)nn(-c2ccc(Br)cc2)c1C(=O)OCC` has an emission maximum (in ClCCl) of 406 nm.

In the case of `C1=Cc2ccc(N(c3ccccc3)c3ccccc3)cc2C2(c3cc(N(c4ccccc4)c4ccccc4)ccc31)c1ccccc1-c1ccccc12`, the emission maximum (in ClCCl) is reported as 461 nm.

In the case of `c1ccc(N2c3ccc4ccccc4c3-c3c4ccccc4cc[n+]3[B-]2(c2ccccc2)c2ccccc2)cc1`, the emission maximum (in Cc1ccccc1) is reported as 623 nm.

`c1ccc2c(c1)c1ccccc1n2-c1ccc(-c2ccc(-n3c4ccccc4c4ccccc43)nc2-n2c3ccccc3c3ccccc32)nn1` gave an emission maximum (in CC#N) of 464.96 nm, an emission maximum (in Cc1ccccc1) of 423 nm and an emission maximum (in ClCCl) of 432.68 nm.

Work on `CCCCCCOc1ccc(/C=C/c2ccc(N(c3ccc(/C=C/c4ccc(OCCCCCC)cc4)cc3)c3ccc(-c4nc5ccccc5nc4-c4ccc(N(c5ccc(/C=C/c6ccc(OCCCCCC)cc6)cc5)c5ccc(/C=C/c6ccc(OCCCCCC)cc6)cc5)cc4)cc3)cc2)cc1` yielded an emission maximum (in C1CCOC1) of 518 nm and an emission maximum (in Cc1ccccc1) of 505 nm.

Compound `C(=C\c1ccc(N(c2ccccc2)c2ccccc2)cc1)/c1ccc(-c2cc(-c3ccccn3)nc(-c3ccccn3)c2)cc1` has an emission maximum (in C1CCOC1) of 502 nm, an emission maximum (in C1COCCO1) of 466 nm and an emission maximum (in CC#N) of 560 nm. The emission maximum (in CCO) was 556 nm and the emission maximum (in ClCCl) was 519 nm.

Compound `CC(C)c1cc(C(C)C)c(-c2nnc(-c3ccc(-n4c5ccccc5c5ccccc54)cc3)o2)c(C(C)C)c1` has an emission maximum (in CCO) of 435 nm and an emission maximum (in Cc1ccccc1) of 377 nm.

`c1ccc2c(c1)-c1c(ccc3ccccc13)C21c2cc(-c3ccc4ccc5cccc6ccc3c4c56)ccc2-c2ccc(-c3ccc4ccc5cccc6ccc3c4c56)cc21` showed an emission maximum (in ClC(Cl)Cl) of 422 nm.
